Test results from patent US10800806B2, “Sterol derivatives and use thereof for treating diseases involving transformed astrocyte cells or for treating malignant haemopathies” (BETA INNOV, priority 2012, dated 2020).

Columns and labels:
[1] = system: immortalized (spontaneously transformed) rat astrocyte lines; conditions: in vitro; cited from earlier work
GBMs (rat line C6) = conditions: in vitro; cited from earlier work
[2] = system: human glioblastoma lines (GBM, line U-87 MG); experiment: Anti-GBM activity in vitro on cultures of human U87-MG cells, cell aggregates (CA); type: cell-based
Experimental: (§1) Plastic flat-bottomed 96-well culture plates (NUNC, USA) treated for cell culture (Sigma-Aldrich, ref. 114754) are used; 1500 cells are seeded per well in 200 μl of culture medium. At the time of treatment, 100 μl of pure culture medium, 100 μl of culture medium containing ethanol, or liposomes, or 100 μl of culture medium containing the active ingredients are added per well; the final volume of the culture medium, after treatment, is therefore 300 μl for all the wells.
The human glioblastoma lines (GBM, line U-87 MG) and their culture medium (Eagle's Minimum Essential Medium or EMEM) were obtained from ATCC (USA, ref. ATCC-HTB-14). Culture of the cells is started and maintained according to the recommendations of the ATCC. These lines are commonly used “in vitro” and “in vivo” for testing anti-GBM potential. The doubling time of these lines is 16 h.
The active ingredients are either dissolved in absolute ethanol (AnalaR, NORMAPUR, VWR, France) or in the form of a liposomal solution, such as 10 μl of the stock solutions diluted in 990 μl and then added to the culture wells ([…] medium per well BI-GBM: 300 μl).
(§2) When the active ingredients are in ethanolic solution, the culture medium contains […] ethanol (v/v).
Briefly, the compounds to be tested, namely the compounds according to the invention (active ingredients) or 7β-OHCH—C3-ester (a derivative of 7beta-hydroxysterol esterified in position 3 with an oleate group, the synthesis of which is described by Rakotoarivelo et al. (18) and used as control), soya phosphatidylcholine (Sigma) as well as cholesteryl-3-sulphate (Sigma) are taken from their stock solutions prepared from dichloroethane in the case of the active ingredients and the 7β-OHCH—C3-ester, a chloroform:methanol mixture (9:1, v/v) in the case of phosphatidylcholine and chloroform in the case of cholesteryl-3-sulphate. The molar ratios are 1 M/0.1 M/0.25 M for phosphatidylcholine, cholesteryl-3-sulphate and the 7β-OHCH—C3-ester and the active ingredients respectively.
After evaporation, a solution of PBS saline, without Ca^2+ and Mg^2+, pH7.2 (BioRad) is added to the dry compound. The volume of buffer and the mass of the products are adjusted so that 20 or 10 μl of liposomes added to 90 μl of culture medium gives the desired final concentrations. The liposomes are formed by the extrusion technique with Liposofast (Sodexim, SA Muizon, France). The solution is passed through polycarbonate filtration membranes (100 nm) 41 times. The liposomes are sterilized by filtration on […] Millipore membranes.
(§3) For example, in the case of the cultures in 96-well plates and as a function of the magnification of the microscope used (objectives×10 or ×20, oculars×10), a photograph taken represents a field of view with a diameter equal to 1/5 of the diameter of a well. Therefore the total number of cells in a well is equal to […] the number of cells per photograph. This technique was compared with a standard technique (trypsinization of the cell layer, centrifugation of the cells, suspension of the cells in physiological saline solution and counting with a THOMA cell) in the case of the C6 cells. The results obtained are identical for both methods.
(§4) The culture medium is withdrawn from each well and 50 μl of Laemmli buffer (0.1 ml of Tris, 0.8 ml of glycerol, 1.6 mL of 10% SDS, 8 ml q.s.f ultrapure water) is added per well.
This test makes it possible to detect the cellular respiration, especially the mitochondrial respiration. The stock solution of tetrazolium salt MTT (3-(4,5-dimethylthiazol-2-yl)-2,5-diphenyl tetrazolium bromide, Sigma-Aldrich, USA, ref. M5655) is prepared with 10 mg of MIT/ml of PBS buffer (phosphate-buffered saline, SIGMA, ref. D 1408). This solution is added directly to the culture medium in each well; the final concentration of MTT is 25 μg/ml. The plate is then incubated at 37° C. for at least 1 h. […]

[3] = system: CD133+ stem cells (U87-MG cultures); experiment: Immunolabelling of the CD133+ stem cells with the A/B peroxidase system; type: cell-based, human; conditions: for CD133+ cells, percentage relative to the controls: 80 μM in liposomal form; for destruction of the CD133+ stem cells: liposomal form
Experimental: The anti-CD133 (poly, Abnova), anti-GFAP (poly, Sigma), anti-NFL (mono, Santa Cruz) and anti-fibroblast (ERTR7, Santa Cruz) primary antibodies are diluted to 1/100 in the case of the first three antibodies and to 1/50 in the case of the last.
The secondary antibodies corresponding to recognition of the primary antibodies are anti-rabbit antibodies coupled to peroxidase (goat, Sigma), anti-mouse coupled to Dylight 488 (sheep, Sigma), anti-mouse coupled to Dylight 488 (sheep, Sigma) and anti-rat coupled to FITC (rabbit, Sigma). The dilutions are 1/4000, 1/1000, 1/4000 and 1/400 respectively.
The cells are permeabilized for 5 min with 0.1% Triton X-100 (Sigma) in PBS (Fisher Scientific). The nonspecific sites are blocked with 2% BSA (Sigma) in PBS. Incubations are carried out for 1 h at ambient temperature, 48 h at 4° C., 24 h at 4° C. and 1 h at ambient temperature for the anti-CD133, anti-GFAP, anti-NFL and anti-Fibroblast antibodies respectively. Incubation with the secondary antibodies is carried out for 1 h at ambient temperature. The CD133 positive cells are detected by the DAB/H2O2 system (Sigma), and observed with an optical microscope.
The immunolabelling is carried out as described above (section II, A).

Solubility in ethanol = type: physicochemical; conditions: ethanolic form
C6 cells = experiment: Anti-GBM activity in vitro on cultures of C6 cells (cell counting, protein assay, MTT test); type: cell-based, rat
Experimental: as §1
The cultures are incubated in a Sanyo incubator (Japan, model MCO-19AlC-UV) at 37° C. and in an atmosphere with 5% CO2 and saturated in humidity. The cells are observed with an inverted microscope (Nikon Eclipse TS100, Japan) and the photographs are taken with a camera (DIGITAL camera with c-mount; LABOVER, France). The culture hood is a microbiological safety hood MSC (thermo SCIENTIFIC, model HERA SAFE KS12, France).
The type C6 cell line was obtained by Benda et al. (16) from rat brain tumours, induced by N-methylnitrosourea. This cell type is used as “in vitro” and “in vivo” model for evaluating anti-GBM potential. The lines originate from the former Strasbourg Neurochemistry Centre (U44 INSERM and UPR 416 CNRS).
The culture medium is made up of 70% Minimum Essential Medium (MEM; (Fischer Scientifique, ref. 61100) and 30% Hanks solution (SIGMA, ref. H 9269). The following are added to the culture medium: foetal calf serum (FCS; Fischer Scientifique, ref. 10108165) at a final concentration of 5% (v/v), an antibiotic solution of ciprofloxacin hydrochloride 5 μg/mL (EUROMEDEX, ref. UC5074) and a solution of Fungizone 2.5 μg/mL (INVITROGEN, ref. 15290-026). The doubling time of this cell type is 17 h. • GBM lines of human origin
The active ingredients are either dissolved in absolute ethanol (AnalaR, NORMAPUR, VWR, France) or in the form of a liposomal solution, such as 10 μl of the stock solutions diluted in 990 μl and then added to the culture wells (200 μl of culture medium) giving concentrations of 30.0, 15.0, 7.5 and 3.3 μM (final volume of culture medium per well BI-GBM: 300 μl).
as §2
A method of cell counting on photographs was used.
as §3, §4
In control wells, 10 μl of a solution of bovine serum albumin range (crystallized BSA, Sigma) is added; the range is from 0 to 20 μg per well. The wells are then supplemented with 40 μl of Laemmli buffer. Finally, 200 μl of solution of BCA reagent is added (Pierce, USA; BCA Protein Assay Kit; ThemoScientific, France).
The culture plates are incubated for 30 min at 37° C. The optical density for each well is read and quantified by a plate reader (BioRad, USA, iMark Microplate reader 12222) at 570 nm.
This test makes it possible to detect the cellular respiration, especially the mitochondrial respiration. The stock solution of tetrazolium salt MTT (3-(4,5-dimethylthiazol-2-yl)-2,5-diphenyl tetrazolium bromide, Sigma-Aldrich, USA, ref. M5655) is prepared with 10 mg of MIT/ml of PBS buffer (phosphate-buffered saline, SIGMA, ref. D 1408). […]

[4] = system: Neuroblastoma (line SH-SY5Y, ATCC-CRL-2266); experiment: Activity in vitro on human neuroblastomas; type: cell-based; conditions: 22 μM once, concentrated liposomal form, 28 days of treatment
Experimental: They were obtained from the ATCC collection (Ref. ATCC-CRL-2266). The culture conditions are based on the recommendations in the ATCC information leaflet. • Chronic Myelomonocytic Leukaemia (CMML)
The neuroblastomas were treated with empty liposomes (controls) or with liposomes containing molecule 1.b or 2.b, 24 h after starting the culture. The cells are treated once with 22 μM of molecule 1.b or 22 μM of molecule 2.b. The liposomal form is concentrated.
For the control cells, the upper left hand photograph marked with the letter A was taken after 7 days of treatment; the lower left hand photograph marked with the letter B was taken after 28 days of treatment.
For the cells treated with the concentrated liposomal molecule 1.b, the photograph marked with the letter C (in the middle, at the top) was taken after 7 days of treatment and the photograph marked with the letter D (in the middle, at the bottom) after 28 days of treatment. For the cells treated with the concentrated liposomal molecule 2.b, the upper right hand photograph marked with the letter E was taken after 7 days of treatment.

## CC(C)CCC[C@@H](C)[C@H]1CC[C@H]2[C@@H]3[C@@H](O)C=C4C[C@@H](O)CC[C@]4(C)[C@H]3CC[C@]12C [7β-OHCH, 7β-Hydroxycholesterol]
[1]
  cytotoxicity: remarkable cytotoxicity
GBMs (rat line C6)
  cytotoxicity: remarkable cytotoxicity
[2]; control experiments at the very low levels formed from molecule 2.b
  death of GBMs: do not induce any death of GBMs

## CCCCCCCC/C=C\CCCCCCCC(=O)O[C@H]1CC[C@@]2(C)C(=C[C@H](O)[C@H]3[C@@H]4CC[C@H]([C@H](C)CCCC(C)C)[C@@]4(C)CC[C@@H]32)C1 [7β-OHCH—C3-ester]
[3]; 4 days of treatment
  CD133+ cells, percentage relative to the controls: 100%
[3]; 22 days of treatment
  CD133+ cells, percentage relative to the controls: 50%
[3]
  destruction of the CD133+ stem cells: This is not the case
[3]; listed as 7beta-OHCH-C3-ester
  destruction of the CD133+ stem cells: does not completely destroy the CD 133+
[2]; ethanolic form
  action on the GBMs (CA): does not act
  anti-tumour activity: no anti-tumour activity is observed
[2]; liposomal form
  efficacy on increasing the dose: not better, or even decreases
  reduction of the level of proteins relative to the untreated control cells: 85%
[2]; liposomal form, 80 μM
  MTT/cell ratio: does not vary
  action on the GBMs (CA): only acts in liposomal form
[2]; liposomal form, medium replaced on the 13th day of treatment
  cell multiplication after replacing the medium with fresh drug-free medium: cell multiplication is observed
[2]; medium replaced on the 13th day, two days later
  increase in the MTT test after removal of the drug: 40%
Solubility in ethanol
  solubility in ethanol (concentration above which no longer soluble): ≤ 30 µM

## CC(C)CCCC(C)C1CCC2C3C(OC(=O)OC(C)(C)C)C=C4CC(OC(=O)C(C)NC(=O)CNC(=O)OCc5ccccc5)CCC4(C)C3CCC12C (centres unmarked) [Molecule 1.a, 7-((tert-butoxycarbonyl)oxy)-10,13-dimethyl-17-(6-methylheptan-2-yl)-2,3,4,7,8,9,10,11,12,13,14,15,16,17-tetradecahydro-1H-cyclopenta[a]phenanthren-3-yl 2-(2-(((benzyloxy)carbonyl)amino)acetamido)propanoate]
C6 cells; 15 μM, 19 days of treatment
  increase of the MTT/cell ratio relative to the control cultures: 20%
C6 cells; 15 μM, ethanolic form, 14 days of treatment
  reduction of the number of cells, the level of proteins and the MTT assay: 30%
C6 cells; 15 μM, ethanolic form, 19 days of treatment
  reduction of the number of cells, the level of proteins and the MTT assay: ≥ 97%
C6 cells; 7.5 and 3.3 μM, 19 days of treatment
  dose-dependence: dose-dependence is also observed
C6 cells; 15 μm, ethanol 3%
  Live residual cells: 3%
C6 cells; ethanolic form, after 19 days of treatment
  cytotoxicity: cytotoxic

## CC(=O)OC1C=C2CC(OC(=O)C(C)NC(=O)CNC(=O)OCc3ccccc3)CCC2(C)C2CCC3(C)C(C(C)CCCC(C)C)CCC3C12 (centres unmarked) [Molecule 1.b, 7-acetoxy-10,13-dimethyl-17-(6-methylheptan-2-yl)-2,3,4,7,8,9,10,11,12,13,14,15,16,17-tetradecahydro-1H-cyclopenta[a]phenanthren-3-yl 2-(2-(((benzyloxy)carbonyl)amino)acetamido)propanoate]
[4]
  toxicity to neuroblastoma cells compared to the control cells: toxic to almost all the cells
